The subject of one test is SW480 cells. Put plainly: CCK8 assay, SW480 cells. Type of test: cell-based. Particulars: CCK-8, SW480 cells, 24 hours incubation at 37 °C, DMEM (2% FBS), OD450-OD600. As to the method: • 1. SW480 Cell plate • Cells digested, counted, and laid a 96-well plate (flat-bottomed transparent) with 10,000 cells/100 ul DMEM (10% FBS) per well; • 2. Observe the cell status on the next day, and start adding medicine after the cells are intact; • 3. Dilute the compound with DMEM (2% FBS) and dilute it in a gradient at concentrations of 20 μM, 10 μM, 5 μM, 2.5 μM, 1.25 μM, 0.625 μM, 0.3125 μM, 0.15625 μM, 0 μM (equal volume DMSO); • 4. Add 100 μl of the above compounds of different concentrations to each well, and make 2 compound wells for each concentration gradient; Leave 3 blank wells (DMEM 2% FBS culture medium only, no cells); • 5. Incubate at 37 °C for 24 hours; • 6. […] Measure absorbance at 450 nm and absorbance at 600 nm (exclude interference from the reagent base color and the absorbance value of the plate itself); • 9. The final absorbance value is OD450 nm-OD600 nm, and the rejection rate is calculated.
Suppression Rate=[(Ac−As)/(Ac−Ab)]×100% • As: absorbance of the experimental wells (medium containing cells, CCK-8, drug to be tested); • Ac: absorbance of the control wells (medium containing cells, CCK-8, no drug to be tested); • Ab: Absorbance of blank wells (medium without cells and drug to be tested, CCK-8).
(Tetrazolium dyes change colour on reduction, which living cells bring about.)

The target of another test is T1, β-catenin (Homo sapiens, UniProt P35222).
T1 sequence (P35222 1-781): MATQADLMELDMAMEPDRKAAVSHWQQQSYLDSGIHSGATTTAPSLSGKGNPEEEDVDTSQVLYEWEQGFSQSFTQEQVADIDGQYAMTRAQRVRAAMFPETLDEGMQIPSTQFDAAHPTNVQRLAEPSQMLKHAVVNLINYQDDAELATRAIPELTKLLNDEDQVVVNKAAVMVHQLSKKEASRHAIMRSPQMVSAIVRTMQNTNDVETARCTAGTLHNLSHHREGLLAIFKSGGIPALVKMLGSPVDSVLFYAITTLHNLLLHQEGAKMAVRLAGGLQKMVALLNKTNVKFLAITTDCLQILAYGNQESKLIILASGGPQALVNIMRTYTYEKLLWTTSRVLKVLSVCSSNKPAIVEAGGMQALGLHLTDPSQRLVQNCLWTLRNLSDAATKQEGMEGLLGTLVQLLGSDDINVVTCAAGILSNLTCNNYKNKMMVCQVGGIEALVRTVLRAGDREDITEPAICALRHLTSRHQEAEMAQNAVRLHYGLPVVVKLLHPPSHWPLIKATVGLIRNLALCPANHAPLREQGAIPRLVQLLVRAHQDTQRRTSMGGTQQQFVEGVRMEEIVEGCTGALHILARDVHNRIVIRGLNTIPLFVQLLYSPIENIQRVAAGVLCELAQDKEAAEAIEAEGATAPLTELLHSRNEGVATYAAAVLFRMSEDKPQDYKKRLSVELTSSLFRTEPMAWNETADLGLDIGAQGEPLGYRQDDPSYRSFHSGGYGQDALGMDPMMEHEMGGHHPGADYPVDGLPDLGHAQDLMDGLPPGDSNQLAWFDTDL
Nature of the test: SRP test (Biacore T200), binding to ligand β-catenin. The following applies: Biacore T200, CM5 chip with β-catenin, HEPES pH 7.4, 0.1% DMSO, 25 °C. As to the method:
• 1. Experimental settings • 1. The analyte is in powder form. • 2. The temperature is 25 °C • 3. The analysis equipment adopts Biacore T200 instrument. • 2. Sample dilution • 1. Ligand β-catenin diluted with HEPES (pH 7.4), 0.5 mg/mL • 2. The analyte was dissolved in DMSO and diluted with 0.1% DMSO HEPES (pH 7.4). • 3. Experimental process • 1. Operate and start according to the standard of Biacore T200 instrument. • 2. Prepare buffer HEPES (pH 7.4) and 500 ml of deionized water for washing syringes (filtered by […] membrane). • 3. Start installing the chip and install the Cm5 chip according to the standard process. • 4. Prepare to start the formal experiment, the buffer will flush the flow path system inside the entire system at a high flow rate. • 5. Choose the appropriate program according to the sample size. • 6. Start capturing the chip and prepare a sufficient volume of ligands β-catenin, EDC/NHS, and blocking solution. The conjugation procedure was started with a conjugation time of 7 min, a flow rate of […], and a final ligand conjugation of approximately 16000RU. • 7. After the conjugation is completed, the sample detection is started, and the analyte binding time is set to 120 s. • Flow rate of 30 μL/min; The dissociation time was 200 s and the flow rate was 30 μL/min. Regeneration time 30 s, • The flow rate is 30 μL/min. • 8. […]
Background: In SPR one partner is held on a chip, and binding of the other changes the refractive index at the surface.

Regarding `CC(C)(Oc1cccc(C2CCCN(C(=O)NCc3ccc(-c4cn[nH]c4)cc3)C2)c1)C(=O)NCC(=O)N1CCCC1CN` (stereo not shown) [Compound 115-020], the “SW^10 IC50” value in the test on SW480 cells is listed as “Inactive”.

On to `CC(C)c1ccc(-c2cccc(S(=O)(=O)N3CCCC(c4cccc(OC(C)(C)C(=O)NCC(=O)N5CCC[C@H]5CN)c4)C3)c2)cc1` (stereo partly shown) [Compound 115-010], for which, at β-catenin, the dissociation constant Kd was determined as 284 µM.

In the case of `CC(C)c1ccc(-c2cccc(S(=O)(=O)N3CCCC(c4cccc(OC(C)(C)C(=O)NCC(=O)N5CCC[C@H]5CCN)c4)C3)c2)cc1` (stereo partly drawn) [Compound 115-014, N-(2-((S)-2-(2-aminoethyl)pyrrolidin-1-yl)-2-oxyethyl)-2-(3-(1-((4′-isopropyl-[1,1′-Biphenyl]-3-yl)sulfonylpiperidine-3-yl)phenoxy)-2-methylpropionamide)], the half-inhibitory concentration (IC50) with SW480 cells (Homo sapiens, read-out: SW^10 IC50) was 52.9 µM.

`CC(C)c1ccc(-c2cccc(S(=O)(=O)N3CCCC(c4cccc(OC(C)(C)C(=O)NCC(=O)N5CC[C@@H](CN)C5)c4)C3)c2)cc1` (stereo partly shown) [Compound 115-012] returned a Kd at β-catenin of 760 µM.

In general, Kd refers to the free concentration of one partner at which half of the binding sites on the other are occupied at equilibrium, for simple one-to-one binding. Usually IC50 stands for the concentration that inhibits the measured activity by half.

The values are drawn from patent US20260327202A1, “COMPOUND CONTAINING 2-METHYL-2-(3-(PIPERIDIN-3-YL)PHENOXY)-2-METHYLPROPANAMIDE SKELETON” (JIANGSU MINGSHENG JUTAI BIOTECHNOLOGY CO. LTD, priority 2023, published 2026).
